This is an account of results in patent publication US7166580B2, “Compounds which inhibit leukocyte adhesion mediated by VLA-4” (Elan Pharmaceuticals, Inc., priority 1997, dated 2007).

One may read the melting point as the temperature, or range, at which the solid turns liquid.

Square brackets hold non-standard residues; d marks the D form. Peptide text beside a SMILES is read from it. * marks the point of attachment. Dip = N[C@H](C(=O)O)C(c1ccccc1)c1ccccc1; Tos = Cc1ccc(S(=O)(=O)*)cc1; OBn = c1ccc(CO*)cc1; Sar = CNCC(=O)O

As to `Cc1ccc(S(=O)(=O)NC(C(=O)N[C@@H](Cc2ccccc2)C(=O)O)c2ccccc2)cc1` (mixture of isomers) [Example 9, N-(Toluene-4-sulfonyl)-D,L-phenylglycyl-L-phenylalanine], the melting point lay in the range of 150 to 152 °C.

Molecule `CCOC(=O)[C@H](Cc1ccccc1)NC(=O)C(NS(=O)(=O)c1ccc(C)cc1)c1ccccc1` (mixture of isomers) [Example 22, N-(Toluene-4-sulfonyl)-D,L-phenylglycyl-L-phenylalanine Ethyl Ester] came in with a melting point of 145 to 147 °C. Then `Cc1ccc(S(=O)(=O)NC(C(=O)N[C@@H](Cc2ccccc2)C(=O)OCc2ccccc2)c2ccccc2)cc1` (mixture of isomers) [Example 29, N-(Toluene-4-sulfonyl)-D,L-phenylglycyl-L-phenylalanine Benzyl Ester], with 148 to 150 °C; and `Cc1ccc(S(=O)(=O)N(C)C(C(=O)N[C@@H](Cc2ccccc2)C(=O)OCc2ccccc2)c2ccccc2)cc1` (mixture of isomers) [Example 30, N-(Toluene-4-sulfonyl)-N-methyl-D,L-phenylglycyl-L-phenylalanine Benzyl Ester], with 46 to 49 °C. Then `Cc1ccc(S(=O)(=O)NCC(=O)N[C@@H](Cc2ccccc2)C(=O)O)cc1` [Example 3, N-(Toluene-4-sulfonyl)glycyl-L-phenylalanine] (Tos-Gly-Phe-OH), with 157 to 161 °C; and `Cc1ccc(S(=O)(=O)N(C)CC(=O)N[C@@H](Cc2ccccc2)C(=O)O)cc1` [Example 4, N-(Toluene-4-sulfonyl)sarcosyl-L-phenylalanine] (Tos-[Sar]-Phe-OH), with 128 to 130 °C; and `Cc1ccc(S(=O)(=O)N[C@@H](C)C(=O)N[C@@H](Cc2ccccc2)C(=O)O)cc1` [Example 5, N-(Toluene-4-sulfonyl)-L-alanyl-L-phenylalanine], with 105 to 108 °C.

`COC(=O)c1ccccc1S(=O)(=O)NCC(=O)N[C@@H](Cc1ccccc1)C(=O)O` [Example 6, N-(2-Methoxycarbonylbenzenesulfonyl)-glycyl-L-phenylalanine] yielded a melting point of 140 to 143 °C. Then `Cc1ccc(S(=O)(=O)N[C@@H](C)C(=O)N[C@@H](Cc2ccccc2)C(=O)OCc2ccccc2)cc1` [Example 20, N-(Toluene-4-sulfonyl)-L-alanyl-L-phenylalanine Benzyl Ester], with 109 to 110 °C; and `Cc1ccc(S(=O)(=O)N(C)CC(=O)N[C@@H](Cc2ccccc2)C(=O)OCc2ccccc2)cc1` [Example 21, N-(Toluene-4-sulfonyl)sarcosyl-L-phenylalanine Benzyl Ester] (Tos-[Sar]-Phe-OBn), with 80 to 82 °C; and `Cc1ccc(S(=O)(=O)N[C@H](C(=O)N[C@@H](Cc2ccccc2)C(=O)OCc2ccccc2)C(c2ccccc2)c2ccccc2)cc1` [Example 25, N-(Toluene-4-sulfonyl)-L-diphenylalanyl-L-phenylalanine Benzyl Ester] (Tos-[Dip]-Phe-OBn), with 79 to 84 °C.
